Columns and labels:
Type in all cases: in vivo, human
normal volunteers = assay: multi-dose 14 day tolerance study of civamide nasal spray; conditions: 14 days, 10 normal volunteers
[1] = test system: patients with vasomotor rhinitis (non-allergic rhinitis); assay: double-blind placebo-controlled 2 week evaluation of civamide nasal spray in vasomotor rhinitis; conditions: 0.01% by weight civamide nasal spray, 2 weeks
Description: Fifty-five (55) patients with vasomotor rhinitis (non-allergic rhinitis) participated in a double-blind placebo-controlled 2 week evaluation of the symptomatic relief afforded patients by 0.01% by weight civamide nasal spray or placebo nasal spray (vehicle for active product). Thirty-one percent (31%) of patients using 0.01% civamide spray reported increased tearing, while 0% of patients on placebo noted such a side effect.

[2] = test system: patients with episodic cluster headache; assay: civamide nasal drops in episodic cluster headache; conditions: 0.025% by weight civamide nasal drops once daily for 1 week, 9 of 18 patients
Description: In a study utilizing 0.025% by weight civamide nasal drops administered once daily for 1 week to 28 patients with episodic cluster headache (a severe form of vasomotor headache that occurs in general 4-24 week clusters), 9 of 18 patients (50%) on civamide nasal drops had increased tearing versus 0 of 10 patients (0%) on vehicle control.

[3] = test system: episodic cluster headache patients; assay: civamide nasal spray versus inactive control in episodic cluster headache; conditions: 0.01% by weight civamide nasal spray twice daily, 36 patients
[4] = test system: patients with migraine headache; assay: capsaicin cream applied to nasal mucosa in migraine headache; conditions: 0.025% by weight capsaicin cream to nasal mucosa
[5] = test system: patients with migraine headache disorder; assay: intranasal capsaicin cream for acute migraine pain, two patients; conditions: 0.025% by weight capsaicin cream intranasally, both of two migraine patients
Method: Two patients with migraine headache disorder were administered 0.025% by weight capsaicin cream intranasally for acute relief of their migraine pain. Both reported increased lacrimation within 30 minutes of application of the capsaicin cream.

COc1cc(CNC(=O)CCCC/C=C\C(C)C)ccc1O [civamide, cis-8-methyl-N-vanillyle-nonenamide]
subjects who experienced increased lacrimation (tear production) (normal volunteers; 0.0075% by weight civamide nasal spray twice daily): 100%
subjects who experienced increased lacrimation (tear production) (normal volunteers; 0.01% by weight civamide nasal spray twice daily): 100%
subjects who experienced increased tearing (normal volunteers; […] by weight civamide nasal spray once daily): 90%
patients who reported increased tearing [1]: 31%
patients who had increased tearing [2]: 50%
patients who reported increased tearing [3]: 51%

COc1cc(CNC(=O)CCCC/C=C/C(C)C)ccc1O [capsaicin]
patients who reported increased tearing as a side effect [4]: 44%
patients who noted some relief of their headaches ([4]; 4 hours after administration): 73%
time to reported increased lacrimation after application [5]: ≤ 30 min
